Experimental findings from ChEMBL document CHEMBL1148095, “6-Hydroxymanzamine A and 3,4-dihydromanzamine A, new alkaloids from the Okinawan marine sponge Amphimedon Sp” (J Nat Prod, 1994) are described below.

For one assay, the system named is L1210. Kind of assay: Cytotoxicity against mouse L1210 cells. Type of assay: functional, cell-based.
Another assay deals with Micrococcus luteus. Kind of assay: Antibacterial activity against Sarcina lutea. The assay is classed as functional.
In the next assay the test system is KB. The assay can be described thus: Cytotoxicity against human KB cells. Type of assay: functional, cell-based.

Converted amounts (≈) assume the structure as drawn.

Consider `O[C@]12C=C(C3=NCCc4c3[nH]c3ccccc43)[C@@H]3CCN(CCCC/C=C\CC1)C[C@@]31C[C@@H]3/C=C\CCCCN3[C@H]12` [3,4-DIHYDROMANZAMINE A], for which the IC50 (in general, the concentration needed to halve the response being measured) turned out to be 0.48 µg/mL (≈ 0.871 µM) in the assay on L1210 and 0.61 µg/mL (≈ 1.11 µM) with KB. In the assay with Micrococcus luteus, the MIC (as a rule, the lowest concentration that inhibits growth of the organism) is 4 µg/mL (≈ 7.26 µM).

Consider `Oc1ccc2[nH]c3c(C4=C[C@@]5(O)CC/C=C\CCCCN6CCC4[C@]4(C[C@@H]7/C=C\CCCCN7[C@H]45)C6)nccc3c2c1` (stereo partly specified), for which the IC50 in the assay on L1210 was found to be 1.5 µg/mL (≈ 2.66 µM); with KB, 2.5 µg/mL (≈ 4.43 µM). The MIC in the assay with Micrococcus luteus turned out to be 1.25 µg/mL (≈ 2.21 µM).
